Data on four compounds can be found in patent US6498126B1, “Herbicide combination with acylated aminophenylsulfonylureas” (Aventis CropScience GmbH, priority 1999, dated 2002).

In the assay the test system is Setaria lutescens. The experiment in a line: Herbicidal action (field trials), post-emergence treatment, visual scoring of damage. In kind it is in vivo. Here is the method:
The seeds or rhizome pieces of typical harmful plants were planted and grown under natural field conditions. After the harmful plants had emerged, they were treated, as a rule at the 2-to 8-leaf stage, with various dosages of the compositions according to the invention at a water application rate of 100 to 400 I/ha (converted).
After the treatment (approx. 4-6 weeks after application), the herbidical activity of the active ingredients or active ingredient mixtures was scored visually by comparing the treated plots with the untreated control plots. Damage and development of all aerial parts of the plants was recorded. Scoring was done on a percentage scale (100% action=all plants dead; 50% action=50% of the plants and green plant parts dead; 0% action=no discernible action=like control plot). The score figures of in each case 4 plots was averaged.
The results are shown in the tables which follow, the action when using active ingredients A and B independently being stated in brackets.

On to `COc1cc(OC)nc(Sc2cccc(Cl)c2C(=O)[O-])n1.[Na+]` [Pyrithiobac (B2.7), sodium 2-chloro-6-(4,6-dimethoxypyrimidin-2-ylthio)benzoate, reference compound], for which the “Herbicidal effect on Setaria lutescens Damage in %” value (shortened to “Herbicidal effect … in %”) (Table 4, 105 gAS/ha, treatment at the 6-8 leaf stage, scoring 27 days after application) is given as 25%.
In the case of `COc1cc(OC)nc(NC(=O)NS(=O)(=O)c2cc(NC=O)ccc2C(=O)N(C)C)n1` [A1.1, N-[N-(4,6-dimethoxypyrimidin-2-yl)-aminocarbonyl]-2-(dimethyl-aminocarbonyl)-5-(formylamino)benzenesulfonamide], the “Herbicidal effect … in %” value (Table 1, 35 gAS/ha, treatment at the 6-8 leaf stage, scoring 27 days after application) is on record as 30%; the “Herbicidal effect … in %” value (Table 1, 70 gAS/ha, treatment at the 6-8 leaf stage, scoring 27 days after application) was 97%; the “Herbicidal effect … in %” value (Table 2, 35 gSA/ha, treatment at the 6-8 leaf stage, scoring 27 days after application) amounted to 30%; the “Herbicidal effect … in %” value (Table 2, 70 gSA/ha, treatment at the 6-8 leaf stage, scoring 27 days after application) worked out at 97%; the “Herbicidal effect … in %” value (Table 3, 35 gAS/ha, treatment at the 2-leaf stage, scoring 39 days after application) is listed as 65%; the “Herbicidal effect … in %” value (Table 3, 70 gAS/ha, treatment at the 2-leaf stage, scoring 39 days after application) came out at 87%. Also, the “Herbicidal effect … in %” value was determined as 65% (Table 4, 35 gAS/ha, treatment at the 6-8 leaf stage, scoring 27 days after application) and 85% (Table 4, 70 gAS/ha, treatment at the 6-8 leaf stage, scoring 27 days after application).
With `CS(=O)(=O)NC(=O)c1cc(Oc2ccc(C(F)(F)F)cc2Cl)ccc1[N+](=O)[O-]` [Fumesafen (B2.9), 5-(2-chloro-α,α,α-trifluoro-p-tolyloxyl)N-methylsulfonyl-2-nitrobenzamide, reference compound], the “Herbicidal effect … in %” value (Table 3, 240 gAS/ha, treatment at the 2-leaf stage, scoring 39 days after application) is given as 25%.
Turning to `CCOc1nc(NC)nc(NC(=O)NS(=O)(=O)c2ccccc2C(=O)OC)n1` [ethametsulfuron (B2.6), methyl 2-{N-[N-(4-ethoxy-6-methylamino-1,3,5-triazin-2-yl)-aminocarbonyl]-aminosulfonyl}benzoate, reference compound], under “Table 1, 15 gAS/ha, treatment at the 6-8 leaf stage, scoring 27 days after application”, the “Herbicidal effect … in %” value amounted to 33%.
